These results are taken from ChEMBL document CHEMBL1201862, “PubChem BioAssay data set” (2004).

The source made the active and inactive calls. Unless noted, the calls are words filed in the database; no cut-off is given here.

The target in experiment [1] is T1, E3 ubiquitin-protein ligase XIAP (Homo sapiens, UniProt P98170). The experiment in a line: Counter Screen using XIAP-Bir3 of the Chemical Antagonists of IAP-family anti-apoptotic proteins confirmation assay. [Related pubchem assays (depositor defined):AID1018, AID1449, AID1513, AID1638, AID1749, AID1750, AID488957, AID488963]. A general note: A counterscreen serves to expose hits that act by an unwanted route or on another target.

In experiment [2] the target is T1, E3 ubiquitin-protein ligase XIAP. The experiment in a line: Chemical Antagonists of IAP-family anti-apoptotic proteins confirmation. [Related pubchem assays (depositor defined):AID1018, AID1513, AID1514, AID1638, AID1749, AID1750, AID488957, AID488963].
For experiment [3] the target is unchanged. The experiment in a line: XIAP antagonists, biochemical, IAP family, fluorescence polarization (AID 1018). Type of experiment: functional. On the technique in general: Fluorescence polarisation rises when a labelled molecule tumbles more slowly, as on binding a larger partner.
The target of experiment [4] is Eukaryotic translation initiation factor 4E (Mus musculus, UniProt P63073). The experiment in a line: eIF4E–eIF4G protein interaction inhibitors, dose response, biochemical, TR-FRET (AID 855).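 Further: potency for disrupting eIF4E binding to eIF4GI seen as loss of FRET.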 In kind it is functional. (Time-resolved FRET reads energy transfer from a long-lived donor to a nearby acceptor.)
A further experiment concerns the target T2, Hexokinase HKDC1 (Homo sapiens, UniProt Q2TB90).
T2 sequence (Q2TB90 whole entry): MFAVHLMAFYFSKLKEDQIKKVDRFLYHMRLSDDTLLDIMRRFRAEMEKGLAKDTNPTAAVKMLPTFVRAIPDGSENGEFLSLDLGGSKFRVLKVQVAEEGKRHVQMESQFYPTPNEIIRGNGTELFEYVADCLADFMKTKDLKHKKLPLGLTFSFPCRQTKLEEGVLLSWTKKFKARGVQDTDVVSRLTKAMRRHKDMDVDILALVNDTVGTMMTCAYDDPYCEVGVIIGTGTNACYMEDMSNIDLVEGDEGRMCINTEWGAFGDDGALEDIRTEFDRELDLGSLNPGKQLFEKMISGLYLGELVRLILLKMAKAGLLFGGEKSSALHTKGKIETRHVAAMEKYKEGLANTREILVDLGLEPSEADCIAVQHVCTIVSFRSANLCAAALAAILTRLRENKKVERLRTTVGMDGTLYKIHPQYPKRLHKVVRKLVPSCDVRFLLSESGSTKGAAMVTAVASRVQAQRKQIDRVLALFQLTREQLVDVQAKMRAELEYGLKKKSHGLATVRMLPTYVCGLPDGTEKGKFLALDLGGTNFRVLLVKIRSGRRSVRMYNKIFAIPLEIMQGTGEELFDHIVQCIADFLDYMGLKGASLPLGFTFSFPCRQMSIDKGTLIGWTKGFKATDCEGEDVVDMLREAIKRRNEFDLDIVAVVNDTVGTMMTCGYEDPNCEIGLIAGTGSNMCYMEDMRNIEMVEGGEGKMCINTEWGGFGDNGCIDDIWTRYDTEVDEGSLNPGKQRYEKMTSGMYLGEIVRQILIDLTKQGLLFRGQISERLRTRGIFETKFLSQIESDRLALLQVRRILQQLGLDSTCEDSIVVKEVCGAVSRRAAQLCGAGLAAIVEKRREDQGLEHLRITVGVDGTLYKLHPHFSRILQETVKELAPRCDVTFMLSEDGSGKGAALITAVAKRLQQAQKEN
Put plainly: HKDC1 hexokinase inhibitors, dose response, biochemical, W721R variant (AID 504729). Type of experiment: functional.

Experiment [5] addresses Intestinal-type alkaline phosphatase (Homo sapiens, UniProt P09923). The experiment in a line: activation of human intestinal alkaline phosphatase – biochemical, dose response (AID 488873). Type of experiment: functional.
Experiment [6] concerns the target Intestinal-type alkaline phosphatase (Mus musculus, UniProt P24822). Put plainly: PubChem AID 488785. Type of experiment: functional.
Experiment [7] addresses T3, Alkaline phosphatase, tissue-nonspecific isozyme (Homo sapiens, UniProt P05186).
T3 sequence (P05186 whole entry): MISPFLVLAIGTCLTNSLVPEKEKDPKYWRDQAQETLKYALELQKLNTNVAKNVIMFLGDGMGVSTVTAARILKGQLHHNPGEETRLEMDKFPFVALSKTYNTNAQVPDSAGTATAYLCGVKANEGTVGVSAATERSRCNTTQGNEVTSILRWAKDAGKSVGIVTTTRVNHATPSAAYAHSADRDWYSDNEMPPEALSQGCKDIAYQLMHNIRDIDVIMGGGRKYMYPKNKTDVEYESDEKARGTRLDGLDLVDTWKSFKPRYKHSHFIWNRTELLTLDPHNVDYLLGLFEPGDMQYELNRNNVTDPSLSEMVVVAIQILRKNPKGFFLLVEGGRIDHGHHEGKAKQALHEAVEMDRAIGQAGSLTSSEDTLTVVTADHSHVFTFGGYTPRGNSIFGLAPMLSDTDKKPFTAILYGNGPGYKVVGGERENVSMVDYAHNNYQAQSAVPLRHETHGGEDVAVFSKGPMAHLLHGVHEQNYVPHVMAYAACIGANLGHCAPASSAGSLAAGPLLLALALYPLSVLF
Put plainly: TNAP enzyme inhibition by screening hits, dose response, selectivity assay for mouse IAP inhibitor project, biochemical, human TNAP, uHTS hits (AID 488906). In kind it is functional.

T1 sequence (P98170 whole entry): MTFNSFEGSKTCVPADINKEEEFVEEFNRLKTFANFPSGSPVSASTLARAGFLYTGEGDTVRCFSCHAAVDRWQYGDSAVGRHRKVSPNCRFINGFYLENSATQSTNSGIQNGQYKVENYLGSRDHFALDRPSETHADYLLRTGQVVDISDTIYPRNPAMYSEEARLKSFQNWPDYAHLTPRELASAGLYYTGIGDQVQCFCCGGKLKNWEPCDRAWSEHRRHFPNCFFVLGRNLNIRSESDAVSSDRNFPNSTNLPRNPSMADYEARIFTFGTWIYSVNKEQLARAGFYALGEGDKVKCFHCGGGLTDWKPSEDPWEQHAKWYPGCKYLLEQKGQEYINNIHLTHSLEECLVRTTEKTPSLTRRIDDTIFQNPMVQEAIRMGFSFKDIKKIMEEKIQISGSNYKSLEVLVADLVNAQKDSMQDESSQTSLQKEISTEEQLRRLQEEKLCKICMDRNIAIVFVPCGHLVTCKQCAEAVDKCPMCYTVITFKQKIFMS
Sequence of Intestinal-type alkaline phosphatase (Mus musculus, UniProt P24822) (P24822 whole entry): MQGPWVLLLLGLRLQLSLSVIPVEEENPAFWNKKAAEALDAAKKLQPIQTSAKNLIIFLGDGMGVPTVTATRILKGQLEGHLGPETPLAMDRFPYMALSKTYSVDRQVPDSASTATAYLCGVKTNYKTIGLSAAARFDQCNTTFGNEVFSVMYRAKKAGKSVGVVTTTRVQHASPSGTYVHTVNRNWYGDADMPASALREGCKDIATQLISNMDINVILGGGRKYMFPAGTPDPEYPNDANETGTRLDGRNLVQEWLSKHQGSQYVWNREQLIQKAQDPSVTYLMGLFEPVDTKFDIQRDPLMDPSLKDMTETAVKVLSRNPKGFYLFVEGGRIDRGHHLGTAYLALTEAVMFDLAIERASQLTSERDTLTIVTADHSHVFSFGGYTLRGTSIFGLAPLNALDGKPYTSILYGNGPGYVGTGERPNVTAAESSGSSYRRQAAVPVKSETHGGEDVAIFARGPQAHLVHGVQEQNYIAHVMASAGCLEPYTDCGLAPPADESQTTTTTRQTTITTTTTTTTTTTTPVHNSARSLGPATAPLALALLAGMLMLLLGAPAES
Sequence of Intestinal-type alkaline phosphatase (Homo sapiens, UniProt P09923) (P09923 whole entry): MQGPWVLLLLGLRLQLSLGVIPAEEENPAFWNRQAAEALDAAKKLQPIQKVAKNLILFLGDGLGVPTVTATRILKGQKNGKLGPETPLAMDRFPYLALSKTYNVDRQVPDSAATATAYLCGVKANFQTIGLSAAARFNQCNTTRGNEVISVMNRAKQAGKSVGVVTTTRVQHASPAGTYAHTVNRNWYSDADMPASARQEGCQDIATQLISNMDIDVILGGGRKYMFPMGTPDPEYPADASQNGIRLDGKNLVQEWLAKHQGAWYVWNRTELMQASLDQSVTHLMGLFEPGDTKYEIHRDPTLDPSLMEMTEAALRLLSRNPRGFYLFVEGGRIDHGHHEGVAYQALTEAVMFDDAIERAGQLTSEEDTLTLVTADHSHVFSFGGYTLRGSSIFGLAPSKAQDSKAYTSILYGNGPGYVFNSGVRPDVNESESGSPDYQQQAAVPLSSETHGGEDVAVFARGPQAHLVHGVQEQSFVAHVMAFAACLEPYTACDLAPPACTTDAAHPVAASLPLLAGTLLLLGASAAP
Sequence of Eukaryotic translation initiation factor 4E (P63073 whole entry): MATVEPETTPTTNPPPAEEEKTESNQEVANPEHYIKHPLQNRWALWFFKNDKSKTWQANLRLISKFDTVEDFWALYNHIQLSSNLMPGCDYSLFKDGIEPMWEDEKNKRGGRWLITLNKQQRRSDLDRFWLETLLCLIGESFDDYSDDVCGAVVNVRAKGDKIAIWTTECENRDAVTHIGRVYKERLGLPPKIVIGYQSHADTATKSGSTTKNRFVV

Broadly, the IC50 is the concentration that gives 50% inhibition. Turning to `O=C(O)[C@@H](c1ccccc1)N1Cc2ccccc2C1=O`, the IC50 was > 200 µM (inactive) in experiment [1]; 65.6 µM (active) in experiment [2]; 28.3 µM (active) in experiment [3]; 13.8 µM (active) in experiment [4]; 13.7 µM (active) at Hexokinase HKDC1.
One may read the EC50 as the concentration at which the effect is half-maximal. In the case of `COc1ccc(OC)c(NC(=O)CCNS(=O)(=O)c2ccc3[nH]c(=O)oc3c2)c1`, the EC50 in experiment [5] is > 100 µM (inactive). For the same compound, the results for the IC50 in experiment [6] and in experiment [7] were 2.49 µM (active) and > 100 µM (inactive), respectively.
